Results published in patent US7550599B2, “Water compatible sterically hindered alkoxyamines and hydroxy substituted alkoxyamines” (Ciba Specialty Chemicals Corporation, priority 2003, dated 2009).

Tests used:
[1] = Ink jet media light fastness, yellow, Example 38; conditions: 100% print density; office fluorescent lighting; total stabilizer 650-700 mg/m2, mixtures 1:1 by weight
Method: (§1) A resin-coated paper impregnated with inorganic adsorbent particles (Konica QP Photoglossy ink jet paper, Konica Corp.) is purchased. On the ink-receiving layer, a 0.8 wt % methanol solution of the instant compounds is applied in an amount to achieve 650-700 mg/m^2. The paper is allowed to dry under ambient temperature and pressure for 24 hours. Separately, test patterns (cyan and yellow) are printed on the treated sheets using a Hewlett Packard DeskJet 970 Cxi printer at 100% print density. The obtained prints are left to dry at ambient temperature and pressure for 24 hours. Color densities and CIEL*a*b coordinates before and after exposure are measured using X-Rite 938 Spectrodensitometer. Exposures are carried out using normal office fluorescent lighting.

[2] = Ink jet media light fastness, cyan, Example 38; conditions: 100% print density; office fluorescent lighting; total stabilizer 650-700 mg/m2, mixtures 1:1 by weight
Method: as §1

[3] = Solubility in 50% butyl carbitol / 50% water; assay type: physicochemical; conditions: 50% butyl carbitol / 50% water by weight; stirred 30 minutes
Method: (§2) The solubility of the instant compounds is evaluated in polar solvent systems. A solution of 50% butyl carbitol by weight and 50% water by weight is prepared. The instant compounds are added to this solution, stirred for 30 minutes, and sampled for analysis. Samples containing bis(1-octyloxy-2,2,6,6-tetramethylpiperidin-4-yl)sebacate and 4-hydroxy-1-(2-hydroxy-2-methylpropoxy)-2,2,6,6-tetramethylpiperidine are filtered to remove any undissolved residue and all samples are analyzed by high pressure liquid chromatography or gas chromatography.

[4] = Dye fading of shampoo under fluorescent light, Example 49; conditions: Clairol Herbal Essences shampoo; fluorescent light aging; loading 0.30 wt %
Method: (§3) The instant compounds are added to a commercial shampoo formulation and are evaluated for their ability to reduce the amount of dye fading when the samples are exposed to fluorescent lighting. The instant compounds (0.36 g) are dissolved in 5 mL of methanol which is then added to 120 g of shampoo (Clairol^R Herbal Essences Shampoo) with agitation. A benzotriazole UV absorber, 2-(2-hydroxy-3-tert-butyl-5-methylphenyl)-2H-benzotriazole-5-sulfonic acid, sodium salt (UVA), is optionally added to the shampoo formulation. The stabilized shampoo formulation is agitated for 15 minutes and put into 20 mL glass scintillation vials. These formulations are weathered under fluorescent light aging at ambient temperature. The CIEL*a*b coordinates before and after exposure are measured using X-Rite 938 Spectrodensitometer. Color change is expressed as Delta E (DE).

[5] = Solubility in 50% butyl cellusolve / 50% water; assay type: physicochemical; conditions: 50% butyl cellusolve / 50% water by weight; stirred 30 minutes
Method: as §2, with “cellusolve” for “carbitol”, “solution” for “solution,”

[6] = Dye fading of shampoo under fluorescent light, Example 48; conditions: Suave shampoo; fluorescent light aging, ambient temperature; loading 0.30 wt %
Method: as §3, with “(Suave^R Natural^R, Fresh Mountain Strawberry)” for “(Clairol^R Herbal Essences Shampoo)”, “formulation at an equivalent concentration.” for “formulation.”

[7] = Ink jet media light fastness, magenta, Example 35; conditions: 50% print density, office fluorescent lighting
Method: as §1, with “mg/m^2, unless otherwise stated.” for “mg/m^2.”, “(magenta)” for “(cyan and yellow)”, “50%” for “100%”

[8] = Ink jet media light fastness, cyan, Example 34; conditions: 50% print density, office fluorescent lighting
Method: as §1, with “mg/m^2, unless otherwise stated.” for “mg/m^2.”, “(cyan)” for “(cyan and yellow)”, “50%” for “100%”

[9] = Ink jet media light fastness, cyan, Example 31; conditions: 100% print density; office fluorescent lighting; 650-700 mg/m2
Method: as §1, with “mg/m^2, unless otherwise stated.” for “mg/m^2.”, “(cyan)” for “(cyan and yellow)”

[10] = Ink jet media light fastness, magenta, Example 32; conditions: 100% print density, office fluorescent lighting
Method: as §1, with “mg/m^2, unless otherwise stated.” for “mg/m^2.”, “(magenta)” for “(cyan and yellow)”

[11] = Dye fading of mouthwash under fluorescent light, Example 50; conditions: Scope Original Mint mouthwash; fluorescent light aging; loading 0.30 wt %
Method: as §3, with “mouthwash” for “shampoo”, “mouthwash (Scope^R Original Mint)” for “shampoo (Clairol^R Herbal Essences Shampoo)”

Structure (SMILES): Cl.ON(Cc1ccccc1)Cc1ccccc1 [Compound A, N,N-dibenzylhydroxylamine hydrochloride, reference compound]
- DE for yellow after 3 months [1]: 5.31
- DE for cyan after 3 months [2]: 11.96

Structure (SMILES): CC(=O)NCC(=O)NC1CC(C)(C)N(OCC(C)(C)O)C(C)(C)C1 [Example 37]
- DE for yellow after 3 months [1]: 2.96
- DE for cyan after 3 months [2]: 11.39

Structure (SMILES): CC(NC1CC(C)(C)N(OCC(C)(C)O)C(C)(C)C1)C(=O)[O-].[K+] (stereo not drawn) [Example 5]
- Solubility (% by weight) [3]: ≧15 % by weight
- DE after 2 weeks [4]: 1.55
- Solubility (% by weight) [5]: ≧18 % by weight

Structure (SMILES): CN(C)CCNC1CC(C)(C)N(OCC(C)(C)O)C(C)(C)C1 [Example 6]
- DE after 2 weeks [6]: 7.53

Structure (SMILES): CC(C)(O)CON1C(C)(C)CC(N)CC1(C)C [Example 7]
- DE after 2 weeks [4]: 3.96
- DE for magenta after 4 weeks ([7]; 650-700 mg/m2): 16.62
- DE for magenta after 4 weeks ([7]; (2x) 1300 to 1400 mg/m2): 14.14
- DE for magenta after 4 weeks ([7]; (3x) 1950 to 2100 mg/m2): 8.60
- DE for cyan after 4 weeks ([8]; 650-700 mg/m2): 5.85
- DE for cyan after 4 weeks ([8]; (2x) 1300 to 1400 mg/m2): 4.95
- DE for cyan after 4 weeks ([8]; (3x) 1950 to 2100 mg/m2): 4.34
- DE for cyan after 4 weeks [9]: 4.27
- DE for magenta after 4 weeks ([10]; 650-700 mg/m2): 20.78
- DE for magenta after 4 weeks ([10]; (2x) 1300 to 1400 mg/m2): 19.52
- DE for magenta after 4 weeks ([10]; (3x) 1950 to 2100 mg/m2): 12.99

Structure (SMILES): CC(C)(O)CON1C(C)(C)CC(OC(=O)C(C)(C)O)CC1(C)C [Example 18]
- DE after 2 weeks [11]: 5.11

Structure (SMILES): CC(C)(O)CON1C(C)(C)CC(OC(=O)CCC(=O)O)CC1(C)C [Example 17]
- DE after 2 weeks [6]: 8.91
